Data reported in patent US11090304B2 (Amgen Inc., priority 2018, dated 2021).

molecular target: GDP-bound KRAS protein (aa 1-169), containing both G12C and C118A amino acid substitutions (Homo sapiens, UniProt P01116, C118A/G12C); test: Coupled nucleotide exchange assay (SOS-mediated, AlphaScreen); assay type: biochemical; settings: 5 min compound pre-incubation
Sequence (P01116 1-169 isoform P01116-2 G12C/C118A): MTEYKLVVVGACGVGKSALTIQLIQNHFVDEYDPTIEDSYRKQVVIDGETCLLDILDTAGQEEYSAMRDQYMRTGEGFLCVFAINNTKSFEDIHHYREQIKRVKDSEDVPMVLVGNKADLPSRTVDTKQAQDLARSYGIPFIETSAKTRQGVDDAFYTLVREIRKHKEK

Coupled exchange IC50 (5 min)	Structure (SMILES)
10.2 | nda μM	C=CC(=O)N1CCN(c2nc(=O)n(-c3c(C#N)cccc3C(C)C)c3nc(-c4ccccc4F)c(Cl)cc23)[C@@H](C)C1 (single isomer, unassigned) [Example 60-20-1]
1.26 | nda μM	C=CC(=O)N1CCN(c2nc(=O)n(-c3c(C)ncnc3C3CC3)c3nc(-c4ccccc4F)c(Cl)cc23)[C@@H](C)C1 (single isomer, unassigned) [Example 60-30-1]
1.15 | nda μM	C=CC(=O)N1CCN(c2nc(=O)n(-c3c(C)cccc3C(C)C)c3nc(-c4c(O)cccc4F)c(F)cc23)C(C)(C)C1 (single isomer, unassigned) [Example 63-4]
7.34 | nda μM	C=CC(=O)N1CCN(c2nc(=O)n(-c3ccccc3C(C)C)c3nc(-c4cccs4)c(Cl)cc23)[C@@H](C)C1 (single isomer, unassigned) [Example 67-4-1]
1.91 | nda μM	C=CC(=O)N1CCN(c2nc(=O)n(-c3ccccc3C(C)C)c3nc(-c4cccs4)c(Cl)cc23)[C@@H](C)C1 (single isomer, unassigned) [Example 67-4-2]
5.29 | nda μM	C=CC(=O)N1CCN(c2nc(=O)n(-c3c(C)cccc3C(C)C)c3nc(-c4c(C)ccc5[nH]ncc45)c(F)cc23)[C@@H](C)C1 (single isomer, unassigned) [Example 68-2-1]
44.1 | nda μM	C=CC(=O)N1CCN(c2nc(=O)n(-c3ccccc3C(C)C)c3nc(N4CCCCC4)c(Cl)cc23)[C@@H](C)C1 (single isomer, unassigned) [Example 69-1-1]
4.89 | nda μM	C=CC(=O)N1CCN(c2nc(=O)n(-c3c(C)cccc3C(C)C)c3nc(-c4nc(N)ccc4Cl)c(F)cc23)[C@@H](C)C1 (single isomer, unassigned) [Example 71-1-2]
8.7 | nda μM	C=CC(=O)N1CCN(c2nc(=O)n(-c3c(C)cccc3C(C)C)c3nc(-c4nc(N)cc5ccccc45)c(F)cc23)[C@@H](C)C1 (single isomer, unassigned) [Example 71-2-1]
1.06 | nda μM	C=CC(=O)N1CCN(c2nc(=O)n(-c3c(C)cccc3C(C)C)c3nc(-c4nc(N)cc5ccccc45)c(F)cc23)[C@@H](C)C1 (single isomer, unassigned) [Example 71-2-2]
2.16 | nda μM	C=CC(=O)N1CCN(c2nc(=O)n(-c3ccccc3C(C)C)c3nc(-c4ccccc4F)c(C)cc23)[C@@H](C)C1 (single isomer, unassigned) [Example 74-1-1]
1.12 | nda μM	C=CC(=O)N1CCN(c2nc(=O)n(-c3c(C)ccnc3C(C)C)c3nc(-c4c(O)cccc4F)c(C)cc23)[C@@H](C)C1 (single isomer, unassigned) [Example 74-3-2]
85 | nda μM	C=CC(=O)NC1CN(c2nc(=O)n(-c3c(C)ccnc3C(C)C)c3nc(-c4c(O)cccc4F)c(F)cc23)C1 (single isomer, unassigned) [Example 75-6, (M)-N-(1-(6-fluoro-7-(2-fluoro-6-hydroxyphenyl)-1-(4-methyl-2-(2-propanyl)-3-pyridinyl)-2-oxo-1,2-dihydropyrido[2,3-d]pyrimidin-4-yl)-3-azetidinyl)-2-propenamide]
1.87 | nda μM	C=CC(=O)N1CCN(c2nc(=O)n(-c3c(C)ccnc3C(C)C)c3nc(-c4c(O)cccc4F)c(F)cc23)[C@H](C(F)F)C1 (single isomer, unassigned) [Example 75-9-1, (M)-4-((2S or 2R)-2-(difluoromethyl)-4-(2-propenoyl)-1-piperazinyl)-6-fluoro-7-(2-fluoro-6-hydroxyphenyl)-1-(4-methyl-2-(2-propanyl)-3-pyridinyl)pyrido[2,3-d]pyrimidin-2(1H)-one]
1.19 | nda μM	C=CC(=O)N1CCN(c2nc(=O)n(-c3c(C)ccnc3C(C)C)c3nc(-c4ccccc4F)c(Cl)cc23)[C@H](C(F)F)C1 (single isomer, unassigned) [Example 78-3-1]
30.3 | nda μM	C=CC(=O)N1CCN(c2nc(=O)n(-c3c(C)ccnc3C(C)C)c3nc(-c4ccccc4F)c(Cl)cc23)C2(CC2)C1 (single isomer, unassigned) [Example 78-4, (M)-6-chloro-7-(2-fluorophenyl)-1-(4-methyl-2-(2-propanyl)-3-pyridinyl)-4-(7-(2-propenoyl)-4,7-diazaspiro[2.5]octan-4-yl)pyrido[2,3-d]pyrimidin-2(1H)-one]
1.26 | nda μM	C=CC(=O)N1CCN(c2nc(=O)n(-c3c(C)ccnc3C(C)C)c3nc(-c4ccccc4F)c(Cl)cc23)[C@H](C(F)(F)F)C1 (single isomer, unassigned) [Example 78-9-1]
0.423 | nda μM	C=CC(=O)N1CCN(c2nc(=O)n(-c3c(C)ccnc3C(C)C)c3nc(-c4ccccc4F)c(Cl)cc23)[C@@H](C(F)(F)F)C1 (single isomer, unassigned) [Example 78-9-2]

Coupled exchange IC50 (5 min)	Structure (SMILES)
15.4 | nda μM	C=CC(=O)NCCNc1nc(=O)n(-c2c(C)ccnc2C(C)C)c2nc(-c3ccccc3F)c(Cl)cc12 (single isomer, unassigned) [Example 78-12, (M)-N-(2-((6-chloro-7-(2-fluorophenyl)-1-(4-methyl-2-(2-propanyl)-3-pyridinyl)-2-oxo-1,2-dihydropyrido[2,3-d]pyrimidin-4-yl)amino)ethyl)-2-propenamide]
2.22 | nda μM	C=CC(=O)N1C[C@H]2CC[C@@H](C1)N2c1nc(=O)n(-c2c(C)ccnc2C(C)C)c2nc(-c3ccccc3F)c(Cl)cc12 (single isomer, unassigned) [Example 78-13, (M)-6-chloro-7-(2-fluorophenyl)-1-(4-methyl-2-(2-propanyl)-3-pyridinyl)-4-(3-(2-propenoyl)-3,8-diazabicyclo[3.2.1]octan-8-yl)pyrido[2,3-d]pyrimidin-2(1H)-one]
16.6 | nda μM	C=CC(=O)N1C[C@@H](C)N(c2nc(=O)n(-c3c(C)ccnc3C(C)C)c3nc(-c4ccccc4F)c(Cl)cc23)[C@H](C)C1 (single isomer, unassigned) [Example 78-16]
26 | nda μM	C=CC(=O)N1C[C@H]2C[C@@H](C1)N2c1nc(=O)n(-c2c(C)ccnc2C(C)C)c2nc(-c3ccccc3F)c(Cl)cc12 (single isomer, unassigned) [Example 78-17, (M)-6-chloro-7-(2-fluorophenyl)-1-(4-methyl-2-(2-propanyl)-3-pyridinyl)-4-(3-(2-propenoyl)-3,6-diazabicyclo[3.1.1]heptan-6-yl)pyrido[2,3-d]pyrimidin-2(1H)-one]
0.824 | nda μM	C=CC(=O)N1CCN(c2nc(=O)n(-c3c(C)cc(CO)cc3C(C)C)c3nc(-c4ccccc4F)c(Cl)cc23)[C@@H](C)C1 (single isomer, unassigned) [Example 80-2-1]
3.38 | nda μM	C=CC(=O)N1CCN(c2nc(=O)n(-c3ccccc3C(C)C)c3nc(-c4c(F)cccc4C#N)c(Cl)cc23)[C@@H](C)C1 (single isomer, unassigned) [Example 98-2]
3.45 | nda μM	C=CC(=O)N1CCN(c2nc(=O)n(-c3c(C)cccc3C(C)C)c3nc(-c4ccccc4F)c(C)cc23)[C@@H](C)C1 (single isomer, unassigned) [Example 102-1]
3.22 | nda μM	C=CC(=O)N1CCN(c2nc(=O)n(-c3ccccc3C(C)C)c3cc(-c4ccccc4F)c(Cl)nc23)[C@@H](C)C1 (single isomer, unassigned) [Example 110-1]
0.86 | nda μM	C=CC(=O)N1CCN(c2nc(=O)n(-c3c(C)ccnc3C(C)C)c3nc(-c4ccccc4F)c(Cl)nc23)[C@@H](C)C1 (single isomer, unassigned) [Example 111-2]
1.02 | nda μM	C=CC(=O)N1CCN(c2nc(=O)n(-c3c(C)cccc3C(C)C)c3nc(-c4cc(Cl)ccc4O)c(F)cc23)[C@@H](C)C1 (single isomer, unassigned) [Example 113]
6.435 | nda μM	C=CC(=O)N1CCN(c2nc(=O)n(-c3c(C)cccc3C(C)C)c3nc(-c4cc(Cl)ccc4O)c(F)cc23)[C@@H](C)C1 (single isomer, unassigned) [Example 114]
0.677 | nda μM	C=CC(=O)N1CCN(c2nc(=O)n(-c3c(C(C)C)ncnc3N(C)C)c3nc(-c4ccccc4F)c(Cl)cc23)[C@@H](C)C1 (single isomer, unassigned) [Example 140-2]
23.9 | nda μM	C=CC(=O)N1CCN(c2nc(=O)n(-c3c(C(N)=O)cccc3C(C)C)c3nc(-c4ccccc4F)c(Cl)cc23)[C@@H](C)C1 (single isomer, unassigned) [Example 142-1]
13.5 | nda μM	C=CC(=O)N1CCN(c2nc(=O)n(-c3c(N)cccc3C(C)C)c3nc(-c4ccccc4F)c(Cl)cc23)[C@@H](C)C1 (single isomer, unassigned) [Example 155-2]
2.17 | nda μM	C=CC(=O)N1CCN(c2nc(=O)n(-c3c(C)cccc3C(C)C)c3nc(-c4nc(N)cc5ccccc45)c(F)cc23)[C@@H](C)C1 [71-2, 7-(3-amino-1-isoquinolinyl)-6-fluoro-1-(2-methyl-6-(2-propanyl)phenyl)-4-((2S)-2-methyl-4-(2-propenoyl)-1-piperazinyl)pyrido[2,3-d]pyrimidin-2(1H)-one]
20.1 | nda μM	C=CC(=O)N1CC(N(C)c2nc(=O)n(-c3c(C)ccnc3C(C)C)c3nc(-c4ccccc4F)c(Cl)cc23)C1 [76-2]
77.7 | nda μM	C=CC(=O)N1CCN(c2nc(=O)c(-c3ccccc3C)c3cc(-c4ccccc4F)c(C)nn23)[C@@H](C)C1 [77-2, 3-(2-fluorophenyl)-2-methyl-5-(2-methylphenyl)-8-((2S)-2-methyl-4-(2-propenoyl)-1-piperazinyl)-6H-pyrimido[1,6-b]pyridazin-6-one]
